Values of other authors as cited in patent publication US20220226239A1, “POLYMERIC MICELLE COMPLEXES, FORMULATIONS, AND USES THEREOF” (ARAVASC INC., priority 2019, published 2022).

Tests used:
[1] = for pKa (tri-protic phosphate), first value: first of three pKa values; for pKa (tri-protic phosphate), second value: second of three pKa values; for pKa (tri-protic phosphate), third value: third of three pKa values
[2] = molecular target: T1, dihydropyrimidine dehydrogenase (DPD) (Homo sapiens, UniProt Q12882); conditions: background statement
T1 sequence (Q12882 4-1025): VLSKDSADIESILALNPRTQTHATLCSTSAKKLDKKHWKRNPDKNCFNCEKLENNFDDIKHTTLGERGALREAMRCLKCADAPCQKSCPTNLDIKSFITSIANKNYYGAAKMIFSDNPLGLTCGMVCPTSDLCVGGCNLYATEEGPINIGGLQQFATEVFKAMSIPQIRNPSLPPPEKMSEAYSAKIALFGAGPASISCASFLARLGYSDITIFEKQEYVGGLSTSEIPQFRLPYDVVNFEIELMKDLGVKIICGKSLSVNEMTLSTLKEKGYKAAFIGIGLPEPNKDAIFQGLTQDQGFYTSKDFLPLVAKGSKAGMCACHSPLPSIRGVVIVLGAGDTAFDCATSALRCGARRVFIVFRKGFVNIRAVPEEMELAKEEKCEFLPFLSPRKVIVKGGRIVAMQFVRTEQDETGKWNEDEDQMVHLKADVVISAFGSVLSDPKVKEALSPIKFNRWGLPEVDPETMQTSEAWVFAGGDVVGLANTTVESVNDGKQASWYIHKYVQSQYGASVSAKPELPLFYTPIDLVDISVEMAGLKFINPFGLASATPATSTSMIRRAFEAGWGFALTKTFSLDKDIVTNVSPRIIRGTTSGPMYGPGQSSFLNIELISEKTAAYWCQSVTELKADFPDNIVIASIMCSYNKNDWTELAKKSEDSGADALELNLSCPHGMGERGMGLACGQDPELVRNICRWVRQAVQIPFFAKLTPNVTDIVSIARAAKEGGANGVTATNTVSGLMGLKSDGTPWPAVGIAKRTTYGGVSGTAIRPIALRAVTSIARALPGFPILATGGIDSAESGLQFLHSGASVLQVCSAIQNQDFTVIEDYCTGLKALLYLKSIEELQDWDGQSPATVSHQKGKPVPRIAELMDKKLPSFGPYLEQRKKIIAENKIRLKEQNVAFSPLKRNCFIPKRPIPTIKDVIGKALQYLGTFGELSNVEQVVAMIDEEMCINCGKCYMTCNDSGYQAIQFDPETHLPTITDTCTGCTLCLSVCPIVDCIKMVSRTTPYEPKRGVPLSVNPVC

SMILES	pKa (tri-protic phosphate), first value [1]	Peturbed pKa (physiological pH) [1]	pKa (tri-protic phosphate), second value [1]	pKa (tri-protic phosphate), third value [1]	degradation by dihydropyrimidine dehydrogenase (DPD) [2] [%]
O=c1[nH]c(=O)n([C@H]2C[C@H](O)[C@@H](COP(=O)(O)O)O2)cc1F [FdUMP, 5-Fluoro-2′-deoxyuridine-5′-O-monophosphate]	phosphate) 2.15,	6-6.5	7.20	12.33	–
Nc1nc2c(ncn2[C@@H]2O[C@@H]3COP(=O)(O)O[C@H]4[C@@H](O)[C@H](n5cnc6c(N)ncnc65)O[C@@H]4COP(=O)(O)O[C@@H]2[C@@H]3O)c(=O)[nH]1 [cGAMP, 2′, 3′ cyclic guanosine monophosphate-adenosine monophosphate]	phosphate) 2,15,	Greater than 6.5	7.20	12.33	–
O=c1[nH]cc(F)c(=O)[nH]1 [Formulation 5-FU, 5-fluorouracil]	–	–	–	–	> 80
